Results from paper PMC11062894, “Protein-based bandpass filters for controlling cellular signaling with chemical inputs” (Nature Chemical Biology, 2023).
pEC50, pIC50, pKd: −log10 of the molar value. “And” between values parts separate entries of the source, which are not always exact repeats. Equal entries are not always repeated.

Key:
[1] = target: GEMS with the dual-drug-controlled (venetoclax, A-1155463) switch (BclXL and Bcl2–LD3) in HEK293T cells (Homo sapiens, UniProt P10415); assay: GEMS SEAP reporter assay, dual-drug-controlled (venetoclax, A-1155463) switch; format: cell-based; details: for SEAP (U/L): Figure 2f, OFF-phase
Sequence of GEMS with the dual-drug-controlled (venetoclax, A-1155463) switch (BclXL and Bcl2–LD3) in HEK293T cells (P10415 whole entry): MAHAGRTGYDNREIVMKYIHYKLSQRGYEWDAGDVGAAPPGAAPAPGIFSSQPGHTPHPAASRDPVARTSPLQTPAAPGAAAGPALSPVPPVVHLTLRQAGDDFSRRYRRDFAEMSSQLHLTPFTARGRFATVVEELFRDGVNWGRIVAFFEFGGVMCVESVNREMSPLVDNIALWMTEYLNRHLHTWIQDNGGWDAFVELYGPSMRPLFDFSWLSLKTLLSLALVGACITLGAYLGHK
Sequence of GEMS with the dual-drug-controlled (venetoclax, A-1155463) switch (BclXL and Bcl2–LD3) in HEK293T cells (Q07817 whole entry, further chain): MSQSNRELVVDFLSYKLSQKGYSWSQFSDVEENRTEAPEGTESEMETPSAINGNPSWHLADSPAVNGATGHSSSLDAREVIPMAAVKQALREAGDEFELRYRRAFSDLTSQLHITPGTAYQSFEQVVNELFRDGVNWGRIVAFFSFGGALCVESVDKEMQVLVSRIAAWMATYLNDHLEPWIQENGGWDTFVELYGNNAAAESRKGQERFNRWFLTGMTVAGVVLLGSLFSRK
Method: (§1) HEK293T cells were seeded in a 96-well plate 24 h before transfection. The transfection mix in each well consisted of 3 ng of constitutive human CMV promoter driven mammalian STAT3 expression vector (PhCMV-STAT3-pA), 30 ng of STAT3-induced reporter expression (OStat3-PhCMVmin-SEAP-pA) and 50 ng of expression vectors for each GEMS receptor chain (PSV40-IgK-(drughigh receptor)-EpoRm-IL-6RBm-pA and PSV40-IgK-(druglow receptor-GGGGSX3-LD3)-EpoRm-IL-6RBm-pA). For the specific drughigh receptor and druglow receptor used in the different cellular assays, they are indicated as wild type or with mutations. Then, plasmid DNA was mixed with 50 μl opti-MEM (Thermo Fisher) and 600 ng of polyethyleneimine (Polysciences, catalog no. 24765-1). For drug treatment experiments, drugs were added 12 h post-transfection and incubated with cells for 24 h before the SEAP reporter detection assay.
(§2) SEAP activity (U l^−1) in cell culture supernatants was quantified by kinetic measurements at 405 nm (1 minute per measurement for 30 cycles) of absorbance increase due to phosphatase-mediated hydrolysis of para-nitrophenyl phosphate (pNPP).
(§3) Binding affinities of SPR drug competition assays were calculated using three-parameter nonlinear regression in GraphPad Prism (v.8.3.0). Representative data of cell assays are presented as individual values and mean values (bars). n = 3 refers to biological replicates. All IC50 or EC50 values of cell assays reported were calculated using four-parameter nonlinear regression ± s.d. Bandpass features of cutoff concentrations and Bandwidth90% were estimated based on the curve fitted using bell-shaped curve nonlinear regression in GraphPad Prism (v.8.3.0). […]

BclXL = details: cited from earlier work
Bcl2–LD3 interaction = Bcl2–LD3 interaction (Homo sapiens, UniProt P10415); assay: SPR drug competition assay, Bcl2–LD3; format: binding; details: for Normalization of Response units / Response units: Bcl2, Supp Fig 2a
Sequence of Bcl2–LD3 interaction (P10415 1-207 limits assumed): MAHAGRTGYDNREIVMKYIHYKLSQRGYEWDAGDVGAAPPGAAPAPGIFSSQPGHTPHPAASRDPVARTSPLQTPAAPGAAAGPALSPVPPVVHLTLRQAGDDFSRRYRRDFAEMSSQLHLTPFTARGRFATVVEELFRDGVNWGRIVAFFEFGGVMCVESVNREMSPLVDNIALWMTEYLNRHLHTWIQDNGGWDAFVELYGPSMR
Method: Drug IC50 values for disrupting heterodimers were measured on a Biacore 8K device. A 5 µM portion of analyte was mixed with 10 µM of BclXL or Bcl2 inhibitors according to the analyte. The mixtures of analyte and drug were injected onto the LD3 immobilized channel.
as §3
This assay is designed to test if the drug of interest can specifically disrupt the
interaction between LD3 and BclXL/Bcl2. The drug-receptors (Bcl2, BclXL) are immobilized on the
different channels of the sensor chip, then the binding sites are saturated with LD3. […]

[2] = target: GEMS with the dual-drug-controlled (A-1155463, venetoclax) switch (Bcl2 and BclXL–LD3) in HEK293T cells (Homo sapiens, UniProt P10415); assay: GEMS SEAP reporter assay, dual-drug-controlled (A-1155463, venetoclax) switch; format: cell-based; details: for SEAP (U/L): Figure 2c, ON-phase
Sequence of GEMS with the dual-drug-controlled (A-1155463, venetoclax) switch (Bcl2 and BclXL–LD3) in HEK293T cells (Q07817 whole entry): as the sequence (Q07817 whole entry, further chain) above
Sequence of GEMS with the dual-drug-controlled (A-1155463, venetoclax) switch (Bcl2 and BclXL–LD3) in HEK293T cells (P10415 whole entry): as the sequence (P10415 whole entry) above
Text: In the first step, we sought to construct a dual-drug-controlled switch to test whether the ON and OFF switching processes can be combined in our receptor architecture. We used Bcl2 and BclXL as the orthogonal drug receptors, which interact with the LD3 protein and respond to their own specific inhibitors. In such a setting, the dual-drug-controlled switch will turn ON in response to one drug and OFF in response to the other, thus mimicking bandpass filtering behavior (Supplementary Fig. 1d). […] To test the switch behavior, we employed the generalizable extracellular molecule sensor (GEMS) platform, which senses extracellular molecules and thus regulates cell surface signaling pathways (Fig. 2a). This receptor platform is based on a mutated EpoR extracellular and transmembrane domain fused to an IL-6RB intracellular domain. Dimerization of EpoR extracellular domains is controlled by N-terminally fused inducible dimerization domains, which drive IL-6RB activation and STAT3 signaling. The Bcl2 and BclXL–LD3 complexes were fused to the extracellular EpoR domains. […] The dimerization of Bcl2 and LD3 causes EpoR extracellular domain dimerization and triggers JAK/STAT3 signaling. Active STAT3 drives the expression of a reporter protein (secreted alkaline phosphatase (SEAP)) controlled by a STAT3-dependent promoter.
as §1, §2
Binding affinities of SPR drug competition assays were calculated using three-parameter nonlinear regression in GraphPad Prism (v.8.3.0). Representative data of cell assays are presented as individual values and mean values (bars). n = 3 refers to biological replicates. All IC50 or EC50 values of cell assays reported were calculated using four-parameter nonlinear regression ± s.d. Bandpass features of cutoff concentrations and Bandwidth90% were estimated based on the curve fitted using bell-shaped curve nonlinear regression in GraphPad Prism (v.8.3.0).

Bcl2 = details: cited from earlier work
BclXL–LD3 interaction = BclXL–LD3 interaction (Homo sapiens, UniProt Q07817); assay: SPR drug competition assay, BclXL–LD3; format: binding; details: for Normalization of Response units / Response units: BclXL, Supp Fig 2a
Sequence of BclXL–LD3 interaction (Q07817 1-209 limits assumed): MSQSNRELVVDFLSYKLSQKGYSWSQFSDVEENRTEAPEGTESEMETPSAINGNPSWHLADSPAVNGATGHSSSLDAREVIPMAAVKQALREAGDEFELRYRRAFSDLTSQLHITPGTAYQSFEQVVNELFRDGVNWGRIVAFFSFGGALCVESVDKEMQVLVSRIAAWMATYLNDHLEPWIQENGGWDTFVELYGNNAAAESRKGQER

[3] = Independent repeat, A-1155463 1 nM
[4] = Independent repeat, A-1155463 10 nM
[5] = Independent repeat, A-1155463 31.6 nM
[6] = Independent repeat, A-1155463 100 nM
[7] = Representative, A-1155463 10 nM
[8] = Representative, A-1155463 31.6 nM
[9] = Representative, A-1155463 100 nM
[10] = Representative, A-1155463 316 nM

In the case of `CN(C)CC#Cc1ccc(OCCCc2sc(N3CCc4cccc(C(=O)Nc5nc6ccccc6s5)c4C3)nc2C(=O)O)c(F)c1` [A-1155463], the pIC50 ([1]; A-1155463-controlled OFF phase) was 6.99, the “decrease in the OFF phase” value ([1]; Fig 2e) was “close to tenfold” and the “SEAP (U/L)” value ([1]; Independent repeat2, A-1155463 0.001 nM) was 136.822 U/L and 169.801 U/L and 176.875 U/L. The “SEAP (U/L)” value ([1]; Independent repeat2, A-1155463 0.1 nM) was 103.12 U/L and 204.542 U/L and 189.519 U/L, the “SEAP (U/L)” value ([1]; Independent repeat2, A-1155463 1 nM) was 92.9798 U/L and 167.805 U/L and 150.91 U/L and the “SEAP (U/L)” value ([1]; Independent repeat2, A-1155463 10 nM) was 77.7029 U/L and 130.847 U/L and 121.179 U/L. For the same compound, the “SEAP (U/L)” value ([1]; Independent repeat2, A-1155463 31.6 nM) was 58.2163 U/L and 85.6507 U/L and 74.3645 U/L, the “SEAP (U/L)” value ([1]; Independent repeat2, A-1155463 100 nM) was 37.6382 U/L and 39.3259 U/L and 34.7513 U/L and the “SEAP (U/L)” value ([1]; Independent repeat2, A-1155463 316 nM) was 10.089 U/L and 12.1866 U/L and 9.268 U/L. For the same compound, the “SEAP (U/L)” value ([1]; Independent repeat2, A-1155463 1000 nM) was 8.119 U/L and 8.577 U/L and 7.014 U/L, the “SEAP (U/L)” value ([1]; Independent repeat, A-1155463 0.001 nM) was 544.306 U/L and 608.147 U/L and 640.878 U/L and the “SEAP (U/L)” value ([1]; Independent repeat, A-1155463 0.01 nM) was 596.894 U/L and 605.557 U/L and 647.084 U/L. For the same compound, the “SEAP (U/L)” value ([1]; Independent repeat, A-1155463 0.1 nM) was 460.121 U/L and 563.478 U/L and 550.17 U/L, the “SEAP (U/L)” value [1, 3] was 534.525 U/L and 587.537 U/L and 614.263 U/L and the “SEAP (U/L)” value [1, 4] was 528.461 U/L and 563.236 U/L and 515.428 U/L. For the same compound, the “SEAP (U/L)” value [1, 5] was 441.716 U/L and 544.633 U/L and 570.455 U/L, the “SEAP (U/L)” value [1, 6] was 308.86 U/L and 496.735 U/L and 439.283 U/L and the “SEAP (U/L)” value ([1]; Independent repeat, A-1155463 316 nM) was 344.351 U/L and 390.049 U/L and 370.506 U/L. The “SEAP (U/L)” value ([1]; Representative, A-1155463 0.001 nM) was 452.056 U/L and 640.781 U/L and 545.972 U/L, the “SEAP (U/L)” value ([1]; Representative, A-1155463 0.01 nM) was 482.724 U/L and 651.317 U/L and 591.102 U/L and the “SEAP (U/L)” value ([1]; Representative, A-1155463 0.1 nM) was 443.461 U/L and 562.309 U/L and 475.562 U/L. For the same compound, the “SEAP (U/L)” value ([1]; Representative, A-1155463 1 nM) was 415.408 U/L and 516.033 U/L and 492.483 U/L, the “SEAP (U/L)” value [1, 7] was 401.724 U/L and 506.387 U/L and 481.044 U/L and the “SEAP (U/L)” value [1, 8] was 379.199 U/L and 421.639 U/L and 391.615 U/L. For the same compound, the “SEAP (U/L)” value [1, 9] was 206.108 U/L and 261.394 U/L and 267.779 U/L, the “SEAP (U/L)” value [1, 10] was 72.1001 U/L and 78.6193 U/L and 80.8054 U/L and the “SEAP (U/L)” value ([1]; Representative, A-1155463 1000 nM) was 15.1572 U/L and 16.9337 U/L and 16.4073 U/L. For the same compound, the pKd (BclXL) was > 11.00, the “Normalization of Response units” value (Bcl2–LD3 interaction; A11 0.01) was 92.1843 and the Response units (Bcl2–LD3 interaction; A11 0.01) was 21.2577. For the same compound, the “Normalization of Response units” value (Bcl2–LD3 interaction; A11 0.1) was 80.8291, the Response units (Bcl2–LD3 interaction; A11 0.1) was 18.6392 and the “Normalization of Response units” value (Bcl2–LD3 interaction; A11 1) was 73.8912. For the same compound, the Response units (Bcl2–LD3 interaction; A11 1) was 17.0393, the “Normalization of Response units” value (Bcl2–LD3 interaction; A11 10) was 65.6037 and the Response units (Bcl2–LD3 interaction; A11 10) was 15.1282. The “Normalization of Response units” value (Bcl2–LD3 interaction; A11 100) was 63.1974, the Response units (Bcl2–LD3 interaction; A11 100) was 14.5733 and the “Normalization of Response units” value (Bcl2–LD3 interaction; A11 1000) was 71.7979. The Response units (Bcl2–LD3 interaction; A11 1000) was 16.5566, the “Normalization of Response units” value (Bcl2–LD3 interaction; A11 10000) was 76.7051 and the Response units (Bcl2–LD3 interaction; A11 10000) was 17.6882. For the same compound, the “effect on the Bcl2–LD3 interaction” value (Bcl2–LD3 interaction; SPR drug competition) was “does not affect”, the pEC50 ([2]; A-1155463 dose response, SEAP, read-out: EC50 of the ON phase) was 7.64 and the “SEAP (U/L)” value [2, 3] was 42.7182 U/L and 41.8919 U/L and 38.4512 U/L. The “SEAP (U/L)” value [2, 4] was 156.072 U/L and 146.503 U/L and 188.411 U/L, the “SEAP (U/L)” value [2, 5] was 331.126 U/L and 300.096 U/L and 322.732 U/L and the “SEAP (U/L)” value [2, 6] was 407.571 U/L and 388.702 U/L and 469.003 U/L. For the same compound, the “SEAP (U/L)” value ([2]; Representative, A-1155463 1 nM) was 15.8426 U/L and 13.5232 U/L and 13.6294 U/L, the “SEAP (U/L)” value [2, 7] was 26.67 U/L and 26.9995 U/L and 28.8916 U/L and the “SEAP (U/L)” value [2, 8] was 53.4598 U/L and 53.7585 U/L and 50.2237 U/L. The “SEAP (U/L)” value [2, 9] was 77.0863 U/L and 99.712 U/L and 86.8586 U/L, the “SEAP (U/L)” value [2, 10] was 74.2135 U/L and the “binding to Bcl2 weaker than to BclXL” value (Bcl2) was “more than 7,000 fold”. The “Normalization of Response units” value (BclXL–LD3 interaction; A11 0.01) was 102.002, the Response units (BclXL–LD3 interaction; A11 0.01) was 136.071 and the “Normalization of Response units” value (BclXL–LD3 interaction; A11 0.1) was 97.9313. For the same compound, the Response units (BclXL–LD3 interaction; A11 0.1) was 130.64, the “Normalization of Response units” value (BclXL–LD3 interaction; A11 1) was 94.098 and the Response units (BclXL–LD3 interaction; A11 1) was 125.527. For the same compound, the “Normalization of Response units” value (BclXL–LD3 interaction; A11 10) was 84.7556, the Response units (BclXL–LD3 interaction; A11 10) was 113.064 and the “Normalization of Response units” value (BclXL–LD3 interaction; A11 100) was 61.7671. For the same compound, the Response units (BclXL–LD3 interaction; A11 100) was 82.3973, the “Normalization of Response units” value (BclXL–LD3 interaction; A11 1000) was 27.7573 and the Response units (BclXL–LD3 interaction; A11 1000) was 37.0282. The “Normalization of Response units” value (BclXL–LD3 interaction; A11 10000) was 14.6141, the Response units (BclXL–LD3 interaction; A11 10000) was 19.4952 and the pIC50 (BclXL–LD3 interaction; prevents BclXL from binding to LD3) was 6.97.
